Values of other authors as cited in paper PMC5189927 (Molecular Psychiatry, 2014).
Counter-ions that a name gives are not always drawn.

What was measured:
glucocerebrosidase [1] = test system: glucocerebrosidase
glucocerebrosidase [2] = settings: healthy volunteers
α-galactosidase A [3] = settings: Fabry patients with amenable mutations, phase 3, 12 months of treatment
α-galactosidase A [4] = settings: healthy volunteers
β-hex A = settings: phase 1/2, Tay–Sachs and Sandhoff patients

For `OC[C@H]1CNC[C@@H](O)[C@@H]1O` [isofagomine, isofagomine tartrate], the “Glucocerebrosidase levels in peripheral blood mononuclear cells” value (glucocerebrosidase [1]; healthy volunteers (phase 1) and type I Gaucher patients (phase 2)) is listed as “significantly increased”, the “Gaucher patients with clinically meaningful end points” value (glucocerebrosidase [1]; phase 2, doses and dosing regimens assessed) is listed as 1 of 18 and the “Increase in wild-type glucocerebrosidase levels” value (glucocerebrosidase [2]) is listed as “two- to threefold”.

For `OC[C@H]1NC[C@H](O)[C@@H](O)[C@H]1O` [migalastat, deoxygalactonojirimycin hydrochloride], the “Levels of kidney interstitial capillary GL-3” value (α-galactosidase A [3]) is given as “statistically significant reduction” and the “Increase in wild-type α-galactosidase A levels” value (α-galactosidase A [4]) is given as “two- to threefold”.

In the case of `CCc1nc(N)nc(N)c1-c1ccc(Cl)cc1` [pyrimethamine, Pyrimethamine], the Side effects (β-hex A) is given as “severe side effects” and the “β-hex A levels in patients” value (β-hex A) is given as “increased β-hex A levels for all eight patients”.
